According to patent publication US20090239846A1, “Novel Compounds” (Glaxo Group Limited, priority 2005, published 2009):
Counter-ions that a name gives are not always drawn.

tested on: influx of neutrophils to the lung in LPS-challenged rats; experiment: Rat LPS neutrophilia model; type: in vivo; conditions: LPS aerosol, lavage 4 hours later, in at least one of the range of conditions tested, significance p<0.05; call rule not given here
Experimental: The effect of compounds on the influx of neutrophils to the lung in LPS-challenged rats is evaluated as follows. The test compound is suspended in one of the following solutions: 0.5% tween 80/PBS, 0.5% tween 80/saline, 10% EtOH/saline (with pH adjusted to 2.0, or 8.0 with HCl, or unadjusted), Saline (pH 2.0, 6.5 or 8.0, 0.5% Tragacanth, 1% DMSO/20% Encapsin/Saline, or acidified 5% Tragacanth. The suspension process may be aided by the use of a glass homogenizer. For intratracheal administration, the animals are anesthetized with inhaled isoflurane and placed in a supine position, the trachea is intubated with a steel gavage needle (1.5 inch, 22 gauge, small ball) or a Penn-Century Microsprayer Aerosolizer (model IA-LB) and 200 ul of dosing solution is delivered. The animals are visually monitored during the recovery process, which typically occurs within two minutes.
Rats treated with compound or vehicle (15 min-24 hours pretreatment) are exposed to an LPS aerosol (100 ug/ml) for 15 min. Four hours later the rats are euthanized with pentobarbital (100 mg/kg, i.p.) and the airways are lavaged with 5 washes of 5 ml of phosphate buffered saline. The harvested cells are stained (Diffquick) and counted to determine total and differential cell data. In a typical study, macrophages represent 40-70% of the total cells, and polymorphonuclear cells 30-60% of the total cells. Inhibition of neutrophil levels relative to no compound controls is calculated based on the differential counts.
The assay has varying conditions, such as concentration, pretreat time, form of the compound (crystalline, amorphous, salts, micronised), and a wet or dry application of the compound.
The data is obtained as % inhibition using a particular concentration and pretreat time.

SMILES | inhibition of neutrophilia
Cc1ccc(C(=O)Nc2ccc(F)cc2)cc1-c1nc(N(C)CCCN(C)C)nc2c1CNC(=O)N2c1c(F)cccc1F [Example 9] | statistically nonsignificant inhibition of neutrophilia
Cc1ccc(C(=O)NC(C)C)cc1-c1nc(N(C)CCN(C)C)nc2c1CNC(=O)N2c1c(F)cccc1F [Example 36, 3-{8-(2,6-difluorophenyl)-2-[[2-(dimethylamino)ethyl](methyl)amino]-7-oxo-5,6,7,8-tetrahydropyrimido[4,5-d]pyrimidin-4-yl}-4-methyl-N-(1-methylethyl)benzamide] | statistically significant inhibition of neutrophilia

biological target: T1, Recombinant human p38α (Homo sapiens, UniProt Q16539); experiment: Fluorescence anisotropy kinase binding assay (standard or low volume); conditions: 12 nM p38α, 5 nM fluorescent ligand
T1 construct: GST; made in house
T1 sequence (Q16539 whole entry): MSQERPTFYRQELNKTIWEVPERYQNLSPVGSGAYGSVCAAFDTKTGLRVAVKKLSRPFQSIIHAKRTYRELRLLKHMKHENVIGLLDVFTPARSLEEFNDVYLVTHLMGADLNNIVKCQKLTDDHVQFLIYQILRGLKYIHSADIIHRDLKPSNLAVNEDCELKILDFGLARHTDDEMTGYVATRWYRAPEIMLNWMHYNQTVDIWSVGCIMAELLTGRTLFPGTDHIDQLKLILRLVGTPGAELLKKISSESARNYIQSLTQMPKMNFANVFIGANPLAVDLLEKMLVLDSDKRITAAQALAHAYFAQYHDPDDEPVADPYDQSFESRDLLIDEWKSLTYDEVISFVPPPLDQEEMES
Text: (§1) The concentration of kinase enzyme should preferably be >2×Kf. The concentration of fluorescent ligand required will depend on the instrumentation used, and the fluorescent and physicochemical properties. The concentration used must be lower than the concentration of kinase enzyme, and preferably less than half the kinase enzyme concentration.
The fluorescent ligand is the following compound:
[drawing 329] • which is derived from 5-[2-(4-aminomethylphenyl)-5-pyridin-4-yl-1H-imidazol-4-yl]-2-chlorophenol and rhodamine green. Recombinant human p38α was expressed as a GST-tagged protein. To activate this protein, 3.5 μM unactivated p38α was incubated in 50 mM Tris-HCl pH 7.5, 0.1 mM EGTA, 0.1% 2-mercaptoethanol, 0.1 mM sodium vanadate, 10 mM MgAc, 0.1 mM ATP with 200 nM MBP-MKK6 DD at 30 degrees for 30 mins. Following activation p38α was re-purified and the activity assessed using a standard filter-binding assay. Protocol: All components are dissolved in buffer of composition 62.5 mM HEPES, pH 7.5, 1.25 mM CHAPS, 1 mM DTT, 12.5 mM MgCl2 with final concentrations of 12 nM p38α and 5 nM fluorescent ligand. 30 μl of this reaction mixture is added to wells containing 1 μl of various concentrations of test compound (0.28 nM-16.6 μM final) or DMSO vehicle (3% final) in NUNC 384 well black microtitre plate and equilibrated for 30-60 mins at room temperature. Fluorescence anisotropy is read in Molecular Devices Acquest (excitation 485 nm/emission 535 nm). Definitions: Ki=dissociation constant for inhibitor binding • Kf=dissociation constant for fluorescent ligand binding
as §1, with “2×Kf.” for “>2×Kf.”, “concentration. The fluorescent ligand is the following compound:” for “concentration.”
which is derived from 5-[2-(4-aminomethylphenyl)-5-pyridin-4-yl-1H-imidazol-4-yl]-2-chlorophenol and rhodamine green. Recombinant human p38α was expressed as a GST-tagged protein. To activate this protein, 3.5 μM unactivated p38α was incubated in 50 mM Tris-HCl pH 7.5, 0.1 mM EGTA, 0.1% 2-mercaptoethanol, 0.1 mM sodium vanadate, 10 mM MgAc, 0.1 mM ATP with 200 nM MBP-MKK6 DD at 30 degrees for 30 mins. Following activation p38α was re-purified and the activity assessed using a standard filter-binding assay. Protocol: All components are dissolved in buffer of composition 62.5 mM HEPES, pH 7.5, 1.25 mM CHAPS, 1 mM DTT, 12.5 mM MgCl2 with final concentrations of 12 nM p38α and 5 nM fluorescent ligand. […] of this reaction mixture is added to wells containing 0.1 μl of various concentrations of test compound (0.02 nM-25 μM final) or DMSO vehicle (1.7% final) in Greiner low volume 384 well black microtitre plate and equilibrated for 30-60 mins at room temperature. Fluorescence anisotropy is read in Molecular Devices Acquest (excitation 485 nm/emission 535 nm). Definitions: Ki dissociation constant for inhibitor binding • Kf=dissociation constant for fluorescent ligand binding It is noted that there are two assay formats shown above for the Fluorescence anisotropy kinase binding assay. The only difference between these two assays is the volume used and the plate type. […] The results described herein may have been performed in either assay format and are not differentiated as to which.

active in the assay (pIC50, p38α binding) | SMILES
active | Cc1ccc(C(=O)NCc2ccccc2)cc1-c1nc(NC2CCN(C(=O)OC(C)(C)C)CC2)nc2c1CNC(=O)N2c1c(F)cccc1F [21(a), 1,1-Dimethylethyl 4-{[8-(2,6-difluorophenyl)-4-(2-methyl-5-{[(phenylmethyl)amino]carbonyl}phenyl)-7-oxo-5,6,7,8-tetrahydropyrimido[4,5-d]pyrimidin-2-yl]amino}-1-piperidinecarboxylate]
active | Cc1ccc(C(=O)Nc2ccc(F)cc2)cc1-c1nc(NCCNC(C)C)nc2c1CNC(=O)N2c1c(F)cccc1F [30(c), 3-[8-(2,6-difluorophenyl)-2-({2-[(1-methylethyl)amino]ethyl}amino)-7-oxo-5,6,7,8-tetrahydropyrimido[4,5-d]pyrimidin-4-yl]-N-(4-fluorophenyl)-4-methylbenzamide]
active | CNCCNc1nc(-c2cc(C(=O)Nc3ccc(F)cc3)ccc2C)c2c(n1)N(c1c(F)cccc1F)C(=O)NC2 [31(b), 3-(8-(2,6-difluorophenyl)-2-{[2-(methylamino)ethyl]amino}-7-oxo-5,6,7,8-tetrahydropyrimido[4,5-d]pyrimidin-4-yl)-N-(4-fluorophenyl)-4-methylbenzamide]
active | CNC1CCN(c2nc(-c3cc(C(=O)Nc4ccc(F)cc4)ccc3C)c3c(n2)N(c2c(F)cccc2F)C(=O)NC3)CC1 [33(b), 3-{8-(2,6-difluorophenyl)-2-[4-(methylamino)-1-piperidinyl]-7-oxo-5,6,7,8-tetrahydropyrimido[4,5-d]pyrimidin-4-yl}-N-(4-fluorophenyl)-4-methylbenzamide]
active | CNCCNc1nc(-c2cc(C(=O)NC(C)C)ccc2C)c2c(n1)N(c1c(F)cccc1F)C(=O)NC2 [38(b), 3-(8-(2,6-difluorophenyl)-2-{[2-(methylamino)ethyl]amino}-7-oxo-5,6,7,8-tetrahydropyrimido[4,5-d]pyrimidin-4-yl)-4-methyl-N-(1-methylethyl)benzamide]
active | CC(C)NC(=O)c1cccc(-c2nc(NCCN(C)C)nc3c2CNC(=O)N3c2c(F)cccc2F)c1 [88(c), 3-(8-(2,6-difluorophenyl)-2-{[2-(dimethylamino)ethyl]amino}-7-oxo-5,6,7,8-tetrahydropyrimido[4,5-d]pyrimidin-4-yl)-N-(1-methylethyl)benzamide]
active | CSc1nc(-c2cc(C(=O)N(C)C)ccc2C)c2c(n1)N(c1c(F)cccc1F)C(=O)NC2 [149(a), 3-[8-(2,6-difluorophenyl)-2-(methylthio)-7-oxo-5,6,7,8-tetrahydropyrimido[4,5-d]pyrimidin-4-yl]-N,N,4-trimethylbenzamide]
active | CNC(=O)c1ccc(C)c(-c2nc(SC)nc3c2CNC(=O)N3c2c(F)cccc2F)c1 [163(a), 3-[8-(2,6-difluorophenyl)-2-(methylthio)-7-oxo-5,6,7,8-tetrahydropyrimido[4,5-d]pyrimidin-4-yl]-N,4-dimethylbenzamide]
active | CCN(CC)CCCC(C)Nc1nc(-c2cc(C(=O)NC(C)C)ccc2C)c2c(n1)N(c1c(F)cccc1F)C(=O)NC2 (centres unmarked) [Example 85, 3-[2-{[4-(diethylamino)-1-methylbutyl]amino}-8-(2,6-difluorophenyl)-7-oxo-5,6,7,8-tetrahydropyrimido[4,5-d]pyrimidin-4-yl]-4-methyl-N-(1-methylethyl)benzamide trifluoroacetate]

The remaining lines, values behind:

SMILES | active in the assay (pIC50, p38α binding)
CSc1nc(-c2cc(C(=O)O)ccc2C)c2c(n1)N(c1c(F)cccc1F)C(=O)NC2 [1(d), 3-[8-(2,6-Difluorophenyl)-2-(methylthio)-7-oxo-5,6,7,8-tetrahydropyrimido[4,5-d]pyrimidin-4-yl]-4-methylbenzoic acid] | active
Cc1ccc(C(=O)NCC2CC2)cc1-c1nc(N2CCC(N)CC2)nc2c1CNC(=O)N2c1c(F)cccc1F [2(b), 3-[2-(4-Amino-1-piperidinyl)-8-(2,6-difluorophenyl)-7-oxo-5,6,7,8-tetrahydropyrimido[4,5-d]pyrimidin-4-yl]-N-(cyclopropylmethyl)-4-methylbenzamide] | active
Cc1ccc(C(=O)NCCc2ccc(F)cc2)cc1-c1nc(N2CCC(N)CC2)nc2c1CNC(=O)N2c1c(F)cccc1F [3(b), 3-[2-(4-Amino-1-piperidinyl)-8-(2,6-difluorophenyl)-7-oxo-5,6,7,8-tetrahydropyrimido[4,5-d]pyrimidin-4-yl]-N-[2-(4-fluorophenyl)ethyl]-4-methylbenzamide] | active
Cc1ccc(NC(=O)c2ccsc2)cc1-c1nc(NC2CC(C)(C)NC(C)(C)C2)nc2c1CNC(=O)N2c1c(F)cccc1F [7(d), N-(3-{8-(2,6-Difluorophenyl)-7-oxo-2-[(2,2,6,6-tetramethyl-4-piperidinyl)amino]-5,6,7,8-tetrahydropyrimido[4,5-d]pyrimidin-4-yl}-4-methylphenyl)-3-thiophenecarboxamide] | active
CSc1nc(-c2cc(N)ccc2C)c2c(n1)N(c1c(F)cccc1F)C(=O)NC2 [10(b), 5-(5-Amino-2-methylphenyl)-1-(2,6-difluorophenyl)-7-(methylthio)-3,4-dihydropyrimido[4,5-d]pyrimidin-2(1H)-one] | active
CSc1nc(-c2cc(NC(=O)c3ccsc3)ccc2C)c2c(n1)N(c1c(F)cccc1F)C(=O)NC2 [Example 10(c), N-{3-[8-(2,6-difluorophenyl)-2-(methylthio)-7-oxo-5,6,7,8-tetrahydropyrimido[4,5-d]pyrimidin-4-yl]-4-methylphenyl}-3-thiophenecarboxamide] | active
